# Earlier results, collected in US11359044B2, “Preparation and application of novel multifunctional nanocomposite material with new photosensitizer” (priority 2018, dated 2022).
# Details: in DMSO, used as control
smiles,measurement,value
"[Zn+2].c1ccc2c(c1)-c1nc-2nc2[n-]c(nc3nc([n-]c4nc(n1)-c1ccccc1-4)-c1ccccc1-3)c1ccccc21 [ZnPc, zinc phthalocyanine]",singlet oxygen yield,0.67
